Measurements as given in patent EP3741762A1, “OXALAMIDO-SUBSTITUTED TRICYCLIC INHIBITORS OF HEPATITIS B VIRUS” (priority 2019, dated 2020).
pEC50: −log10 of the molar value.

test system: HBV; experiment: Anti-HBV activity in vitro: quantification of extracellular HBV DNA by direct qPCR in HepAD38 cells; format: cell-based; settings: Hepatitis B virus, tetracycline-free medium, 96 hours at 37°C, reported as EC50 threshold value, read-out: HBV inh EC50
Description: HepAD38 cell line (Ladner et al., Antimicrob Agents Chemother, 1997, 41, 1715-20) was used for HBV inhibition assays. HepAD38 is a subclone, derived from Hepatoblastoma cell line HepG2 (ATCC® Number: HB-8065™), that expresses HBV genome under the transcriptional control of a tetracycline-responsive promoter in a TET-OFF system: addition of tetracycline (TET) or doxycycline suppresses HBV replication, while its removal switches on the process allowing HBV viral particles release in the cell supernatant. HepAD38 cell line is maintained in DMEM/F12, supplemented with 10% of fetal bovine serum, 1% of glutamine, 1% of penicillin/streptomycin, 0.4 mg/ml G418 and 0,3 ug/ml tetracycline. For the HBV inhibition assay, doxycycline-free medium is used in order to allow virion production.
HBV inhibition activity in vitro was performed in 96 multiwell plates. During the initial (primary) screening, compounds were first tested in triplicates at concentrations of 0.02 µM, 0.1 µM, 0.5µM and 1µM. For selected compounds, an 8-point dose-response curve was obtained using 1:2 serial dilutions (starting from 0.01µM, 0.1µM, 0.4µM or 5 µM, depending on the degree of inhibition observed during the primary screening). From the dose-response curves, half maximal effective concentration (EC50) could be calculated (see also below).
In more detail, compounds - typically dissolved in DMSO stock solutions - were diluted to 2x the final desired concentration in 100 µl of the above medium (without doxycycline) and plated in three replicates in the 96-well plates.
Simultaneously, HepAD38 cells - extensively pre-washed in tetracycline-free medium in order to induce HBV production - were suspended at 2^∗10^4 cells in 100 µl of tetracycline-free medium and added to each well of the plate, to yield a final assay volume of 200 µl DMSO - used for stock solutions and compounds dilutions - which was always present in the assays at a final concentration of 0.5%.
Plates were then incubated 96 hours at 37°C and then subjected to cell viability assays and extracellular HBV quantification, in order to evaluate both the cytotoxic potential and the antiviral activity of compounds. Cytotoxicity was assessed by a commercial fluorescence assay that measures the metabolic activity of cells, directly related to cell viability (Cell Titer Blue, Promega). Anti-HBV activity was evaluated by quantification of extracellular HBV DNA with direct qPCR. In particular, supernatant was collected and centrifuged for cell debris clarification, viral DNA was extracted from virions by addition of lysis buffer (1 mM 1,4-dithiothreitol, 0.2% sodium dodecyl sulphate) and incubated at 95°C for 10 min. Samples were then diluted 1:40 and real time PCR amplification was performed with SYBR green assay (Power SYBR™ Green PCR Master Mix-Thermo Fisher Scientific) and specific HBV primer (HBV-DF:5'-[…]-3' (SEQ ID No. 1), HBV-DR:5'-[…]-3' (SEQ ID No.2)).
Antiviral activity data for each compound are reported as EC50 threshold value (see Table 1 legend). Excel and Graphpad Prism programs are typically used for data elaboration and EC50 calculation.

With `Cc1cc(NC(=O)c2c3c(cn2C)S(=O)(=O)N[C@H]2CN(C(=O)C(=O)NC4CC4)C[C@H]2CO3)ccc1F` [Example E8, (3aR,10aR)-2-(2-(cyclopropylamino)-2-oxoacetyl)-N-(4-fluoro-3-methylphenyl)-7-methyl-2,3,3a,4,10,10a-hexahydro-1H,7H-dipyrrolo[3,4-b:3',4'-f][1,4,5]oxathiazocine-8-carboxamide 5,5-dioxide] as the compound, how does the pEC50 read?
The pEC50 was greater than 6.30.

`Cc1cc(NC(=O)c2c3c(cn2C)S(=O)(=O)N[C@H]2CN(C(=O)C(=O)N[C@H](C)C(F)(F)F)C[C@H]2CO3)ccc1F` [Example E9, (3aR,10aR)-N-(4-fluoro-3-methylphenyl)-7-methyl-2-(2-oxo-2-(((R)-1,1,1-trifluoropropan-2-yl)amino)acetyl)-2,3,3a,4,10,10a-hexahydro-1H,7H-dipyrrolo[3,4-b:3',4'-f][1,4,5]oxathiazocine-8-carboxamide 5,5-dioxide] was tested. Which pEC50 did it give?
The pEC50 was greater than 6.30.

With `Cc1cc(NC(=O)c2c3c(cn2C)S(=O)(=O)N[C@H]2CN(C(=O)C(=O)NC4CC(F)(F)C4)C[C@H]2CO3)ccc1F` [Example E14, (3aR,10aR)-2-(2-((3,3-difluorocyclobutyl)amino)-2-oxoacetyl)-N-(4-fluoro-3-methylphenyl)-7-methyl-2,3,3a,4,10,10a-hexahydro-1H,7H-dipyrrolo[3,4-b:3',4'-f][1,4,5]oxathiazocine-8-carboxamide 5,5-dioxide] as the compound, how does the pEC50 read?
Its pEC50 is greater than 6.30.

With `Cc1cc(NC(=O)c2c3c(cn2C)S(=O)(=O)N[C@H]2CN(C(=O)C(=O)N[C@@H](C)C(F)(F)F)C[C@H]2CO3)ccc1F` [Example E15, (3aR,10aR)-N-(4-fluoro-3-methylphenyl)-7-methyl-2-(2-oxo-2-(((S)-1,1,1-trifluoropropan-2-yl)amino)acetyl)-2,3,3a,4,10,10a-hexahydro-1H,7H-dipyrrolo[3,4-b:3',4'-f][1,4,5]oxathiazocine-8-carboxamide 5,5-dioxide] as the compound, how does the pEC50 read?
The pEC50 was greater than 6.30.

With `Cc1cc(NC(=O)c2c3c(cn2C)S(=O)(=O)N[C@H]2CN(C(=O)C(=O)NCC(C)C)C[C@H]2CO3)ccc1F` [Example E16, (3aR,10aR)-N-(4-fluoro-3-methylphenyl)-2-(2-(isobutylamino)-2-oxoacetyl)-7-methyl-2,3,3a,4,10,10a-hexahydro-1H,7H-dipyrrolo[3,4-b:3',4'-f][1,4,5]oxathiazocine-8-carboxamide 5,5-dioxide] as the compound, how does the pEC50 read?
Its pEC50 is greater than 6.30.

With `Cc1cc(NC(=O)c2c3c(cn2C)S(=O)(=O)N[C@H]2CN(C(=O)C(=O)NCC(F)(F)F)C[C@H]2CO3)ccc1F` [Example E17, (3aR,10aR)-N-(4-fluoro-3-methylphenyl)-7-methyl-2-(2-oxo-2-((2,2,2-trifluoroethyl)amino)acetyl)-2,3,3a,4,10,10a-hexahydro-1H,7H-dipyrrolo[3,4-b:3',4'-f][1,4,5]oxathiazocine-8-carboxamide 5,5-dioxide] as the compound, how does the pEC50 read?
The pEC50 was greater than 6.30.

How did the pEC50 turn out when `Cc1cc(NC(=O)c2c3c(cn2C)S(=O)(=O)N[C@H]2CN(C(=O)C(=O)NC4(C)CC4)C[C@H]2CO3)ccc1F` [Example E18, (3aR,10aR)-N-(4-fluoro-3-methylphenyl)-7-methyl-2-(2-((1-methylcyclopropyl)amino)-2-oxoacetyl)-2,3,3a,4,10,10a-hexahydro-1H,7H-dipyrrolo[3,4-b:3',4'-f][1,4,5]oxathiazocine-8-carboxamide 5,5-dioxide] was run?
Its pEC50 is greater than 6.30.

With `Cc1cc(NC(=O)c2c3c(cn2C)S(=O)(=O)N[C@H]2CN(C(=O)C(=O)NC4(C(F)(F)F)CC4)C[C@H]2CO3)ccc1F` [Example E19, (3aR,10aR)-N-(4-fluoro-3-methylphenyl)-7-methyl-2-(2-oxo-2-((1-(trifluoromethyl)cyclopropyl)amino)acetyl)-2,3,3a,4,10,10a-hexahydro-1H,7H-dipyrrolo[3,4-b:3',4'-f][1,4,5]oxathiazocine-8-carboxamide 5,5-dioxide] as the compound, how does the pEC50 read?
The pEC50 was greater than 6.30.

`Cc1cc(NC(=O)c2c3c(cn2C)S(=O)(=O)N[C@H]2CN(C(=O)C(=O)NCC4CC4)C[C@H]2CO3)ccc1F` [Example E20, (3aR,10aR)-2-(2-((cyclopropylmethyl)amino)-2-oxoacetyl)-N-(4-fluoro-3-methylphenyl)-7-methyl-2,3,3a,4,10,10a-hexahydro-1H,7H-dipyrrolo[3,4-b:3',4'-f][1,4,5]oxathiazocine-8-carboxamide 5,5-dioxide] was tested. Which pEC50 did it give?
The pEC50 was greater than 6.30.

`Cc1cc(NC(=O)c2c3c(cn2C)S(=O)(=O)N[C@H]2CN(C(=O)C(=O)NC(C)C)C[C@H]2CO3)ccc1F` [Example E21, (3aR,10aR)-N-(4-fluoro-3-methylphenyl)-2-(2-(isopropylamino)-2-oxoacetyl)-7-methyl-2,3,3a,4,10,10a-hexahydro-1H,7H-dipyrrolo[3,4-b:3',4'-f][1,4,5]oxathiazocine-8-carboxamide 5,5-dioxide] was tested. Which pEC50 did it give?
The pEC50 was greater than 6.30.

`Cc1cc(NC(=O)c2c3c(cn2C)S(=O)(=O)N[C@H]2CN(C(=O)C(=O)NC4CCC4)C[C@H]2CO3)ccc1F` [Example E22, (3aR,10aR)-2-(2-(cyclobutylamino)-2-oxoacetyl)-N-(4-fluoro-3-methylphenyl)-7-methyl-2,3,3a,4,10,10a-hexahydro-1H,7H-dipyrrolo[3,4-b:3',4'-f][1,4,5]oxathiazocine-8-carboxamide 5,5-dioxide] was tested. Which pEC50 did it give?
The pEC50 was greater than 6.30.

With `Cc1cc(NC(=O)c2c3c(cn2C)S(=O)(=O)N[C@H]2CN(C(=O)C(=O)NC4CC4)C[C@H]2CS3)ccc1F` [Example E23, (3aR,10aR)-2-(2-(cyclopropylamino)-2-oxoacetyl)-N-(4-fluoro-3-methylphenyl)-7-methyl-2,3,3a,4,10,10a-hexahydro-1H,7H-dipyrrolo[3,4-c:3',4'-g][1,6,2]dithiazocine-8-carboxamide 5,5-dioxide] as the compound, how does the pEC50 read?
Its pEC50 is greater than 6.30.

`Cc1cc(NC(=O)c2c3c(cn2C)S(=O)(=O)N[C@H]2CN(C(=O)C(=O)N[C@H](C)C(F)(F)F)C[C@H]2CS3)ccc1F` [Example E24, (3aR,10aR)-N-(4-fluoro-3-methylphenyl)-7-methyl-2-(2-oxo-2-(((R)-1,1,1-trifluoropropan-2-yl)amino)acetyl)-2,3,3a,4,10,10a-hexahydro-1H,7H-dipyrrolo[3,4-c:3',4'-g][1,6,2] dithiazocine-8-carboxamide 5,5-dioxide] was tested. Which pEC50 did it give?
The pEC50 was greater than 6.30.

With `Cc1cc(NC(=O)c2c3c(cn2C)S(=O)(=O)N[C@H]2CN(C(=O)C(=O)N4CC(F)(F)C4)C[C@H]2CO3)ccc1F` [Example E29, (3aR,10aR)-2-(2-(3,3-difluoroazetidin-1-yl)-2-oxoacetyl)-N-(4-fluoro-3-methylphenyl)-7-methyl-2,3,3a,4,10,10a-hexahydro-1H,7H-dipyrrolo[3,4-b:3',4'-f][1,4,5]oxathiazocine-8-carboxamide 5,5-dioxide] as the compound, how does the pEC50 read?
The pEC50 was greater than 6.30.

With `Cc1cc(NC(=O)c2c3c(cn2C)S(=O)(=O)N[C@H]2CN(C(=O)C(=O)NC(C)(C)C(F)(F)F)C[C@H]2CO3)ccc1F` [Example E32, (3aR,10aR)-N-(4-fluoro-3-methylphenyl)-7-methyl-2-(2-oxo-2-((1,1,1-trifluoro-2-methylpropan-2-yl)amino)acetyl)-2,3,3a,4,10,10a-hexahydro-1H,7H-dipyrrolo[3,4-b:3',4'-f][1,4,5]oxathiazocine-8-carboxamide 5,5-dioxide] as the compound, how does the pEC50 read?
The pEC50 was greater than 6.30.

`Cc1cc(NC(=O)c2c3c(cn2C)S(=O)(=O)N[C@H]2CN(C(=O)C(=O)NC4(C(F)(F)F)CCC4)C[C@H]2CO3)ccc1F` [Example E33, (3aR,10aR)-N-(4-fluoro-3-methylphenyl)-7-methyl-2-(2-oxo-2-((1-(trifluoromethyl)cyclobutyl)amino)acetyl)-2,3,3a,4,10,10a-hexahydro-1H,7H-dipyrrolo[3,4-b:3',4'-f][1,4,5]oxathiazocine-8-carboxamide 5,5-dioxide] was tested. Which pEC50 did it give?
Its pEC50 is greater than 6.30.

How did the pEC50 turn out when `Cc1cc(NC(=O)c2c3c(cn2C)S(=O)(=O)N[C@H]2CN(C(=O)C(N)=O)C[C@H]2CS3)ccc1F` [Example E34, (3aR,10aR)-2-(2-amino-2-oxoacetyl)-N-(4-fluoro-3-methylphenyl)-7-methyl-2,3,3a,4,10,10a-hexahydro-1H,7H-dipyrrolo[3,4-c:3',4'-g][1,6,2]dithiazocine-8-carboxamide 5,5-dioxide] was run?
Its pEC50 is greater than 6.30.
